In ChEMBL document CHEMBL1201862, “PubChem BioAssay data set” (2004):
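Each compound was tested at five concentrations against cells in 96-well plates for 48 hours. GI50 is the concentration that inhibits growth by half.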 Active and inactive are the calls of the source. Cut-off read from the data, not from the text of the source: active = GI50 up to about 1.1 µM and inactive = higher.

Columns and labels:
Experiment in all cases: DTP human tumour cell line panel, 48 h
MOLT-4 = tested on: MOLT-4
NCI/ADR-RES = tested on: NCI/ADR-RES
TK-10 = tested on: TK-10
CAKI-1 = tested on: CAKI-1
IGROV-1 = tested on: IGROV-1
UO-31 = tested on: UO-31
LOX IMVI = tested on: LOX IMVI
RXF 393 = tested on: RXF 393
U-251 = tested on: U-251
OVCAR-3 = tested on: OVCAR-3
BT-549 = tested on: BT-549
MCF7 = tested on: MCF7
A498 = tested on: A498
SF-539 = tested on: SF-539
M14 = tested on: M14
786-0 = tested on: 786-0
K562 = tested on: K562
SN12C = tested on: SN12C
HL-60 = tested on: HL-60
HCC 2998 = tested on: HCC 2998

Measured: GI50

COc1ccc(C2C3COc4ccccc4C3=NN2c2ccccc2)cc1 (stereo not given)
inactive: MOLT-4 92.5 µM | NCI/ADR-RES > 100 µM | TK-10 > 100 µM | CAKI-1 > 100 µM | IGROV-1 > 100 µM | UO-31 > 100 µM | LOX IMVI > 100 µM | RXF 393 > 100 µM | U-251 > 100 µM | OVCAR-3 > 100 µM | BT-549 > 100 µM | MCF7 63.8 µM | A498 > 100 µM | SF-539 > 100 µM | M14 > 100 µM | 786-0 > 100 µM | K562 > 100 µM

O=C(O)C1CCc2ccc3ccccc3c2C1c1cccc2ccccc12 (stereo not given)
inactive: MOLT-4 19.8 µM | SN12C 24.2 µM | NCI/ADR-RES 23.3 µM | TK-10 44.5 µM | CAKI-1 68.2 µM | IGROV-1 22.9 µM | UO-31 25.8 µM | LOX IMVI 19.5 µM | RXF 393 19 µM | U-251 17.9 µM | OVCAR-3 16.3 µM | BT-549 19.1 µM | MCF7 34.7 µM | A498 30.8 µM | SF-539 23.8 µM | M14 17.6 µM | 786-0 18.2 µM | K562 32.3 µM | HL-60 26.6 µM

COc1cc(S(=O)(=O)Nc2ccc(-c3csc(N)n3)cc2)ccc1Cl
inactive: MOLT-4 11.1 µM | SN12C 18.3 µM | NCI/ADR-RES 33.9 µM | CAKI-1 20.2 µM | UO-31 19.8 µM | LOX IMVI 18.7 µM | RXF 393 12.2 µM | OVCAR-3 14.9 µM | BT-549 22.3 µM | MCF7 15.2 µM | A498 18.2 µM | SF-539 47.6 µM | M14 18.6 µM | 786-0 16.4 µM | K562 18.5 µM | HL-60 15 µM

O=C(Cn1c2ccc(Br)cc2c2nc3ccccc3nc21)N/N=C/c1ccccc1
inactive: MOLT-4 > 10 µM | SN12C > 100 µM | NCI/ADR-RES > 100 µM | TK-10 > 100 µM | CAKI-1 > 100 µM | IGROV-1 > 100 µM | UO-31 > 100 µM | RXF 393 34.9 µM | U-251 85.7 µM | OVCAR-3 > 100 µM | BT-549 > 100 µM | MCF7 > 100 µM | A498 > 100 µM | SF-539 12.9 µM | M14 > 100 µM | 786-0 12.3 µM | K562 43.4 µM

COc1ccc(NC(=S)Nc2cc(C)cc(C)n2)cc1
inactive: MOLT-4 > 100 µM | SN12C > 100 µM | NCI/ADR-RES > 100 µM | TK-10 > 100 µM | CAKI-1 > 100 µM | IGROV-1 > 100 µM | UO-31 > 100 µM | LOX IMVI > 100 µM | RXF 393 > 100 µM | U-251 > 100 µM | OVCAR-3 > 100 µM | BT-549 > 100 µM | MCF7 > 100 µM | A498 > 100 µM | SF-539 > 100 µM | M14 > 100 µM | 786-0 > 100 µM | K562 > 100 µM | HL-60 > 100 µM

COC(=O)C1=Nc2c(C)nn(-c3ccccc3)c2N=C(c2ccc(C)cc2)C1
inactive: MOLT-4 > 10 µM | SN12C > 10 µM | NCI/ADR-RES > 10 µM | TK-10 > 10 µM | CAKI-1 > 10 µM | IGROV-1 > 10 µM | LOX IMVI > 10 µM | HCC 2998 > 10 µM | U-251 > 10 µM | OVCAR-3 > 10 µM | BT-549 > 10 µM | MCF7 > 10 µM | SF-539 > 10 µM | M14 > 10 µM | 786-0 > 10 µM | K562 > 10 µM | HL-60 > 10 µM

C/C(CC(O)(C(F)(F)Cl)C(F)(F)Cl)=N\Nc1ccccc1
inactive: MOLT-4 23.4 µM | NCI/ADR-RES 24.8 µM | TK-10 38.4 µM | CAKI-1 22.2 µM | IGROV-1 36.3 µM | UO-31 31.2 µM | LOX IMVI 27.5 µM | RXF 393 19.2 µM | U-251 28.2 µM | OVCAR-3 19.1 µM | BT-549 33.6 µM | MCF7 23.2 µM | A498 40 µM | SF-539 32.3 µM | M14 29.4 µM | 786-0 41.1 µM | K562 35.5 µM | HL-60 22.5 µM

CCOC(=O)CCC(NC(=O)c1ccc(Oc2nc3ccccc3nc2C(=O)OCC)cc1)C(=O)OCC (stereo not given)
inactive: MOLT-4 > 100 µM | SN12C > 100 µM | NCI/ADR-RES 55.1 µM | TK-10 > 100 µM | CAKI-1 > 100 µM | IGROV-1 > 100 µM | UO-31 > 100 µM | LOX IMVI > 100 µM | HCC 2998 > 100 µM | U-251 71.3 µM | OVCAR-3 > 100 µM | BT-549 > 100 µM | MCF7 > 100 µM | SF-539 > 100 µM | M14 > 100 µM | 786-0 37.2 µM | HL-60 > 100 µM
